Experimental data as given in ChEMBL document CHEMBL1128030, “Synthesis and biological evaluation of a library containing potentially 1600 amides / esters. A strategy for rapid compound generation and screening” (Bioorg Med Chem Lett, 1994).

Key:
[1] = target: T1, Neuromedin-K receptor (Homo sapiens, UniProt P29371); experiment: Compound was tested for its ability to displace [3H]senktide binding to human Tachykinin receptor 3 expressed in CHO cells; format: cell-based
T1 sequence (P29371 whole entry): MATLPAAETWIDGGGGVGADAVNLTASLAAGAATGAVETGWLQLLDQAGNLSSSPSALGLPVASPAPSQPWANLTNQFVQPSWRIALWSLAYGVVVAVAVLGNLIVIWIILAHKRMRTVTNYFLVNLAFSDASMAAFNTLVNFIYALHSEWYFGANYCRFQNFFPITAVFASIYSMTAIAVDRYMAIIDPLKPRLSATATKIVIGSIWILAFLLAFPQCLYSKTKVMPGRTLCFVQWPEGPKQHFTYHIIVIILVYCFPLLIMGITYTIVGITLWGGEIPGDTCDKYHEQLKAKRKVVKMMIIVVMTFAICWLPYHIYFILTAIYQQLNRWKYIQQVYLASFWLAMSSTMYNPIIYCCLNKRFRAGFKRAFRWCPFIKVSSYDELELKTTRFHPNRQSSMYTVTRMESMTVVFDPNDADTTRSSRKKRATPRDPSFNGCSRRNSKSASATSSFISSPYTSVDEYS

[2] = target: T2, Interstitial collagenase (Homo sapiens, UniProt P03956); experiment: Inhibition of human recombinant MMP-I
T2 sequence (P03956 whole entry): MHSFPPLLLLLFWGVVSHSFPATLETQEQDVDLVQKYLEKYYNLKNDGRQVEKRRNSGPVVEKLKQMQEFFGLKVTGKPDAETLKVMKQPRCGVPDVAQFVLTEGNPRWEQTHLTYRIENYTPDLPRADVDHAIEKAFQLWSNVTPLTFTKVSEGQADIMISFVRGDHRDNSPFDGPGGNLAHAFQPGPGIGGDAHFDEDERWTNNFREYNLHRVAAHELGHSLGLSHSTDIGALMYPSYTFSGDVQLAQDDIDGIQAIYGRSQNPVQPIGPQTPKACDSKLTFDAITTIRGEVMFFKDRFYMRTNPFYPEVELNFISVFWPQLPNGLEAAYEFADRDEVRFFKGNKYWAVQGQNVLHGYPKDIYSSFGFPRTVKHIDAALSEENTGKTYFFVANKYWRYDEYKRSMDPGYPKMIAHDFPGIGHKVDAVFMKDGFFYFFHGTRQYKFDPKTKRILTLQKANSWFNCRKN

SMILES	IC50 [1] [µM]	IC50 [2] [µM]
O=C(/C=C/c1ccccc1)N1CCN(C(c2ccccc2)c2ccc(Cl)cc2)CC1 (configuration not stated)	60	–
N#Cc1ccc(C(=O)Nc2ccccc2N2CCCCC2)cc1	–	55
